# Like-named read-outs stand apart in the source and are kept apart here.
# How the values were obtained:
# Type in all cases: cell-based
# [1] = test system: HCV genotype 1a-H77 replicon; assay: HCV stable subgenomic replicon cell culture assay (luciferase reporter), genotype 1a-H77; settings: Hepatitis C virus
# [2] = test system: HCV genotype 1b-Con1 replicon; assay: HCV stable subgenomic replicon cell culture assay (luciferase reporter), genotype 1b-Con1; settings: Hepatitis C virus
# [3] = test system: HCV replicon containing NS5A from genotype 2a; assay: Stable 1b-Con1 replicon cell line containing a portion of NS5A from genotype 2a (luciferase); settings: Hepatitis C virus
# Method: (§1) This replicon construct contains a NotI restriction site upstream of NS5A, and a BlpI restriction site just after NS5A amino acid 214. Viral RNA from infected subjects was isolated according to Middleton et al., J VIROL METHODS 145:137-145 (2007) and Tripathi et al., ANTIVIRAL RES 73:40-49 (2007). RT-PCR was conducted on the RNA to generate a DNA fragment encoding NS5A amino acids 1-214. The PCR fragment incorporated NotI and BlpI compatible ends, and this fragment was ligated into a plasmid containing the 1b-Con1 replicon. Stable cell lines were generated by introducing these constructs into Huh-7 cells.
# (§2) Briefly, replicon-containing cells were seeded into 96-well plates at a density of 5000 cells per well in 100 μl DMEM containing 5% FBS. The following day, compounds were diluted in dimethyl sulfoxide (DMSO) to generate a 200× stock in a series of eight half-log dilutions. The dilution series was then further diluted 100-fold in the medium containing 5% FBS. […] Luciferin solution (50 μl, Promega) was added to each well, and luciferase activity was measured with a Victor II luminometer (Perkin-Elmer). The percent inhibition of HCV RNA replication was calculated for each compound concentration and the EC50 value was calculated using nonlinear regression curve fitting to the 4-parameter logistic equation and GraphPad Prism 4 software (Halfman, METHODS ENZYMOL 74 Pt C: 481-497 (1981)). […]
# [4] = test system: HCV replicon containing NS5A from genotype 2b; assay: Stable 1b-Con1 replicon cell line containing a portion of NS5A from genotype 2b (luciferase); settings: Hepatitis C virus
# Method: as §1, §2
# [5] = test system: HCV replicon containing NS5A from genotype 3a; assay: Stable 1b-Con1 replicon cell line containing a portion of NS5A from genotype 3a (luciferase); settings: Hepatitis C virus
# Method: as §1, §2
# [6] = test system: HCV replicon containing NS5A from genotype 4a; assay: Stable 1b-Con1 replicon cell line containing a portion of NS5A from genotype 4a (luciferase); settings: Hepatitis C virus
# Method: as §1, §2
# [7] = test system: HCV replicon containing NS5A from genotype 5a; assay: Stable 1b-Con1 replicon cell line containing a portion of NS5A from genotype 5a (luciferase); settings: Hepatitis C virus
# Method: as §1, §2
# [8] = test system: HCV replicon containing NS5A from genotype 6a; assay: Stable 1b-Con1 replicon cell line containing a portion of NS5A from genotype 6a (luciferase); settings: Hepatitis C virus
# Method: as §1, §2
# [9] = test system: HCV replicons containing NS5A genes from genotype 1b HCV infected humans; assay: Transient replicon (shuttle vector) assay with NS5A genes from patient isolates, genotype 1b
# [10] = test system: HCV replicons containing NS5A genes from genotype 2a HCV infected humans; assay: Transient replicon (shuttle vector) assay with NS5A genes from patient isolates, genotype 2a; settings: Hepatitis C virus
# [11] = test system: HCV replicons containing NS5A genes from genotype 2b HCV infected humans; assay: Transient replicon (shuttle vector) assay with NS5A genes from patient isolates, genotype 2b
# [12] = test system: HCV replicons containing NS5A genes from genotype 3a HCV infected humans; assay: Transient replicon (shuttle vector) assay with NS5A genes from patient isolates, genotype 3a
# [13] = test system: HCV replicons containing NS5A genes from genotype 6a HCV infected humans; assay: Transient replicon (shuttle vector) assay with NS5A genes from patient isolates, genotype 6a
# [14] = read-out: Mean EC50, pM, ± Std. Dev.
compound,measurement,setting,value
"COC(=O)N[C@H](C(=O)N1CCC[C@H]1C(=O)Nc1ccc([C@@H]2CC[C@@H](c3ccc(NC(=O)[C@@H]4CCCN4C(=O)[C@@H](NC(=O)OC)C(C)C)cc3)N2c2ccc(C(C)(C)C)cc2)cc1)C(C)C [Compound 1, dimethyl (2S,2′S)-1,1′-((2S,2′S)-2,2′-(4,4′-((2S,5 S)-1-(4-tert-butylphenyl)pyrrolidine-2,5-diyl)bis(4,1-phenylene))bis(azanediyl)bis(oxomethylene)bis(pyrrolidine-2,1-diyl))bis(3-methyl-1-oxobutane-2,1-diyl)dicarbamate]",EC50,"[1]; Genotype 1a-H77 replicon, 0% human plasma (5% fetal bovine serum), read-out: Mean EC50, pM, ± Std. Dev.",14.1 ± 6.8 pM
same,EC50,"[1]; against HCV genotype 1a (summary statement), read-out: EC50 value",< 20 pM
same,EC50,"[1]; genotype 1a and 1b replicons together, in the presence of 5% FBS, read-out: mean EC50 values",5 to 14 pM
same,EC50,"[2]; Genotype 1b-Con1 replicon, 0% human plasma (5% fetal bovine serum), read-out: Mean EC50, pM, ± Std. Dev.",5 ± 1.9 pM
same,EC50,"[2]; against HCV genotype 1b (summary statement), read-out: EC50 value",< 20 pM
same,EC50,[3]; read-out: EC50 value,< 20 pM
same,EC50,[3]; [14],12.4 ± 2.7 pM
same,EC50,[4]; read-out: EC50 value,< 20 pM
same,EC50,[4]; [14],4.3 ± 1.2 pM
same,EC50,[5]; read-out: EC50 value,< 20 pM
same,EC50,[5]; [14],19.3 ± 5.8 pM
same,EC50,[6]; read-out: EC50 value,< 20 pM
same,EC50,[6]; [14],1.71 ± 0.88 pM
same,EC50,[7]; read-out: EC50 value,< 20 pM
same,EC50,[7]; [14],4.3 ± 0.9 pM
same,EC50,[8]; read-out: EC50 value,< 500 pM
same,EC50,[8]; [14],415 ± 97 pM
same,EC50,"[9]; Hepatitis C virus, Genotype 1b, isolate 1393",1.15 pM
same,EC50,"[9]; Hepatitis C virus, Genotype 1b, isolate 4377",1.53 pM
same,EC50,"[9]; Hepatitis C virus, Genotype 1b, isolate 4386",1.21 pM
same,EC50,"[9]; Hepatitis C virus, Genotype 1b, isolate 4410",1.2 pM
same,EC50,"[9]; Hepatitis C virus, Genotype 1b, isolate 9432",1.12 pM
same,EC50,"[9]; Hepatitis C virus, read-out: EC50, pM, Mean ± Std. Dev, mean of the 11 genotype 1b clinical isolates",1 pM
same,EC50,"[9]; read-out: EC50, pM, Mean ± Std. Dev, mean of the 11 genotype 1b clinical isolates",1.03 ± 0.23 pM
same,EC50,"[10]; Genotype 2a, isolate 34021",5.07 pM
same,EC50,"[10]; Genotype 2a, isolate 84836",11.3 pM
same,EC50,"[10]; Genotype 2a, isolate 88935",2.56 pM
same,EC50,"[10]; Genotype 2a, isolate 88939",2.03 pM
same,EC50,"[10]; Genotype 2a, isolate 91106",3.39 pM
same,EC50,"[10]; Genotype 2a, isolate 10124423",3.46 pM
same,EC50,"[10]; Genotype 2a, isolate U01",4.79 pM
same,EC50,"[10]; read-out: EC50, pM, Mean ± Std. Dev., mean of the genotype 2a isolates (methionine at NS5A position 31)",3.8 pM
same,EC50,"[11]; Hepatitis C virus, Genotype 2b, isolate 48477",1.11 pM
same,EC50,"[11]; Hepatitis C virus, Genotype 2b, isolate 51629, variant F28",44.7 pM
same,EC50,"[11]; Hepatitis C virus, Genotype 2b, isolate 9992612",5.15 pM
same,loss in activity,[11]; genotype 2b sample containing L28F variant,75 fold
same,EC50,"[11]; read-out: EC50, pM, Mean ± Std. Dev., mean of 13/14 genotype 2b samples (without the L28F sample)",1.08 ± 1.23 pM
same,EC50,"[12]; Genotype 3a, isolate 55500, variant K30 (A30K)",55.2 pM
same,EC50,"[12]; Hepatitis C virus, Genotype 3a, isolate 7153-55",2.32 pM
same,EC50,"[12]; Hepatitis C virus, Genotype 3a, isolate 9110-47",3.87 pM
same,EC50,"[12]; Hepatitis C virus, Genotype 3a, isolate 48557",11.4 pM
same,EC50,"[12]; Hepatitis C virus, Genotype 3a, isolate 55500, variant K30 (A30K)",55 pM
same,EC50,"[12]; Hepatitis C virus, Genotype 3a, isolate 55510",3.03 pM
same,EC50,"[12]; Hepatitis C virus, Genotype 3a, isolate 55534",3.28 pM
same,EC50,"[12]; Hepatitis C virus, Genotype 3a, isolate 57223",4.14 pM
same,EC50,"[12]; Hepatitis C virus, Genotype 3a, isolate 57314",2.02 pM
same,EC50,"[12]; Hepatitis C virus, Genotype 3a, isolate 85501",3.05 pM
same,EC50,"[12]; Hepatitis C virus, Genotype 3a, isolate 89241, variant V28",2.71 pM
same,EC50,"[12]; Hepatitis C virus, Genotype 3a, isolate 95079",15.2 pM
same,EC50,"[12]; Hepatitis C virus, Genotype 3a, isolate 9810069",2.52 pM
same,EC50,"[12]; Hepatitis C virus, read-out: EC50, pM, Mean ± Std. Dev., mean of 12 of the 13 genotype 3a samples (without the A30K sample)",4.5 pM
same,EC50,"[12]; read-out: EC50, pM, Mean ± Std. Dev., mean of 12 of the 13 genotype 3a samples (without the A30K sample)",4.54 ± 4.26 pM
same,EC50,"[13]; Hepatitis C virus, isolate 1110880, variant L28",42 pM
same,EC50,"[13]; Hepatitis C virus, isolate 1110880-L28F, variant F28 (L28F mutation introduced)",68 pM
same,EC50,"[13]; isolate 1110880, variant L28",42.3 pM
same,EC50,"[13]; isolate 1110880-L28F, variant F28 (L28F mutation introduced)",68 pM
